Values after ≈ are worked out from the molar mass of the structure shown.
Tests used:
[1] = target: T1, Pseudomonas aeruginosa LpxC enzyme (Pseudomonas aeruginosa, UniProt P47205); test: IC50 assay, LpxC enzyme from P. aeruginosa; format: biochemical; details: 0.5 nM enzyme, 25° C., pH 8.0, 20 min; ** = average of 2-8 assays
T1 construct: made in house; host or cells: E. coli
T1 sequence (P47205 1-303): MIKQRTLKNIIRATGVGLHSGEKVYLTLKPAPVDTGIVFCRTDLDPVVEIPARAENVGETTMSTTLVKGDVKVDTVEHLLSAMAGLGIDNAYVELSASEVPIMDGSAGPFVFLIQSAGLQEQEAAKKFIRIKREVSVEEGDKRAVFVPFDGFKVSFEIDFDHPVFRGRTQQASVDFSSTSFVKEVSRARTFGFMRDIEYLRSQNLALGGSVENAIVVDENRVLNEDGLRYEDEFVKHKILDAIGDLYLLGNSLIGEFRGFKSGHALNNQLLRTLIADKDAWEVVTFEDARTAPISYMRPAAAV
In short: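 P. aeruginosa LpxC (0.5 nM, expressed in E. coli) reacted with 0.5 uM ³H-acetyl-labelled UDP-3-O-(R-3-hydroxydecanoyl)-GlcNAc in 50 mM sodium phosphate pH 8.0 with 1 mg/ml BSA at 25 °C for 20 min. Charcoal stopped the reaction, and filtrate radioactivity was counted by scintillation after no-enzyme background subtraction.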

[2] = test system: Escherichia coli EC-1; test: MIC determination, E. coli EC-1; format: cell-based; details: EC1, EC-1: VOGEL, * = arithmetic mean of 2-6 MIC determinations, read-out: MIC (ug/mL) E. coli EC-1
In short: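 Minimum inhibitory concentration against Escherichia coli EC-1 was determined in vitro by dilution susceptibility testing under CLSI M7-A7 and M100-S18 guidelines.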

[3] = test system: Staphylococcus aureus ATCC 29213; test: MIC determination, S. aureus ATCC 29213; format: cell-based; details: ATCC29213, CLSI quality control reference strain, * = arithmetic mean of 2-6 MIC determinations, read-out: MIC (ug/mL) S. aureus ATCC 29213
In short: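 MIC was measured by dilution susceptibility testing following CLSI guidelines (M7-A7; M100-S18). The test organism is the CLSI quality-control reference strain.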

[4] = test system: P. aeruginosa PAO280; test: MIC determination, P. aeruginosa PAO280; format: cell-based; details: Pseudomonas aeruginosa, PAO280, read-out: MIC (ug/mL) P. aeruginosa PAO280
In short: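 Broth dilution MIC per CLSI M7-A7/M100-S18 guidelines. Strain PAO280 lacks efflux pumps MexAB-oprM, MexXY and MexZ.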

[5] = test system: P. aeruginosa UI-18; test: MIC determination, P. aeruginosa UI-18; format: cell-based; details: Pseudomonas aeruginosa, UI18; wild-type; * = arithmetic mean of 2-6 MIC determinations; read-out: MIC (ug/mL) P. aeruginosa UI-18
In short: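 MIC by broth dilution following CLSI M7-A7 and M100-S18 guidelines, tested against wild-type P. aeruginosa UI-18.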

[6] = test system: Klebsiella pneumoniae; test: MIC determination, K. pneumoniae; format: cell-based; details: ciprofloxacin-resistant, ESBL-expressing clinical isolate, * = arithmetic mean of 2-6 MIC determinations, read-out: MIC (ug/mL) K. pneumoniae
In short: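 MIC determined by broth dilution per CLSI M7-A7 and M100-S18 guidelines. Strain: ciprofloxacin-resistant, ESBL-expressing clinical isolate of K. pneumoniae.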

[7] = test system: Enterobacter aerogenes; test: MIC determination, E. aerogenes; format: cell-based; details: Klebsiella aerogenes; quinolone-resistant, ESBL-expressing clinical isolate; * = arithmetic mean of 2-6 MIC determinations; read-out: MIC (ug/mL) E. aerogenes
In short: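 Clinical E. aerogenes isolate, quinolone-resistant and ESBL-expressing. MIC measured in vitro by dilution testing according to CLSI guidelines (M7-A7, M100-S18).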

[8] = test system: Acinetobacter baumanii/haemolyticus; test: MIC determination, A. baumanii/haemolyticus; format: cell-based; details: Acinetobacter baumannii; multidrug-resistant clinical isolate; * = arithmetic mean of 2-6 MIC determinations; read-out: MIC (ug/mL) A. baumanii/haemolyticus
In short: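 MICs were determined by CLSI broth dilution (M7-A7, M100-S18) against a multidrug-resistant clinical isolate of Acinetobacter baumanii/haemolyticus.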

Row | SMILES | IC50 [1] | MIC [2] | MIC [3] | MIC [4] | MIC [5] | MIC [6] | MIC [7] | MIC [8]
1 | CC(OCc1ccc(-c2ccccc2)cc1)(C(=O)NO)C(=O)NCc1nnn[nH]1 (stereo not drawn) [Example 57, 2-(biphenyl-4-ylmethoxy)-N-hydroxy-2-methyl-N′-(1H-tetrazol-5-ylmethyl)malonamide] | 0.00134 µM | > 64 µg/mL | > 64 µg/mL | 4 µg/mL (≈ 10.1 µM) | > 64 µg/mL | > 64 µg/mL | > 64 µg/mL | > 64 µg/mL
2 | CC(CO)(OCc1ccc(-c2ccc(Cl)cc2)cc1)C(=O)NO (stereo not drawn) [Example 62, 2-[(4′-chlorobiphenyl-4-yl)methoxy]-N,3-dihydroxy-2-methylpropanamide] | 0.00417 µM | > 32 µg/mL | > 32 µg/mL | 1 µg/mL (≈ 2.98 µM) | 32 µg/mL (≈ 95.3 µM) | > 32 µg/mL | > 32 µg/mL | > 32 µg/mL
3 | CC(CO)(OCc1ccc(-c2ccc(F)cc2F)cc1)C(=O)NO (stereo not drawn) [Example 66, 2-[(2′,4′-difluorobiphenyl-4-yl)methoxy]-N,3-dihydroxy-2-methylpropanamide] | 0.00332 µM | > 64 µg/mL | > 64 µg/mL | 1.5 µg/mL (≈ 4.45 µM) | 64 µg/mL (≈ 190 µM) | > 64 µg/mL | > 64 µg/mL | > 64 µg/mL
4 | CC(OCc1ccc(-c2ccccc2)cc1)(C(=O)NO)C(=O)NCc1cc(-c2ccccc2)on1 (stereo not drawn) [Example 67, 2-(biphenyl-4-ylmethoxy)-N-hydroxy-2-methyl-N′-[(5-phenylisoxazol-3-yl)methyl]malonamide] | 0.0032 µM | 16 µg/mL (≈ 33.9 µM) | > 16 µg/mL | 0.5 µg/mL (≈ 1.06 µM) | 4 µg/mL (≈ 8.48 µM) | > 16 µg/mL | > 16 µg/mL | 8 µg/mL (≈ 17 µM)
5 | CC(OCc1ccc(-c2ccccc2)cc1)(C(=O)NO)C(=O)NCc1nc(-c2ccccc2)no1 (stereo not drawn) [Example 69, 2-(biphenyl-4-ylmethoxy)-N-hydroxy-2-methyl-N′-[(3-phenyl-1,2,4-oxadiazol-5-yl)methyl]malonamide] | 0.00446 µM | 16 µg/mL (≈ 33.9 µM) | > 16 µg/mL | 0.75 µg/mL (≈ 1.59 µM) | 12 µg/mL (≈ 25.4 µM) | > 16 µg/mL | > 16 µg/mL | 16 µg/mL (≈ 33.9 µM)
6 | Cc1cccnc1CCNC(=O)C(C)(OCc1ccc(-c2ccccc2)cc1)C(=O)NO (stereo not drawn) [Example 70, 2-(biphenyl-4-ylmethoxy)-N-hydroxy-2-methyl-N′-[2-(3-methylpyridin-2-yl)ethyl]malonamide] | 0.00804 µM | 16 µg/mL (≈ 36.9 µM) | > 64 µg/mL | 1 µg/mL (≈ 2.31 µM) | 32 µg/mL (≈ 73.8 µM) | > 64 µg/mL | > 64 µg/mL | 32 µg/mL (≈ 73.8 µM)
7 | CC(OCc1ccc(-c2ccccc2)cc1)(C(=O)NO)C(=O)NCc1ccncn1 (stereo not drawn) [Example 71, 2-(biphenyl-4-ylmethoxy)-N-hydroxy-2-methyl-N′-(pyrimidin-4-ylmethyl)malonamide] | 0.00394 µM | 32 µg/mL (≈ 78.7 µM) | > 64 µg/mL | 0.125 µg/mL (≈ 0.308 µM) | 16 µg/mL (≈ 39.4 µM) | > 64 µg/mL | > 64 µg/mL | > 64 µg/mL
8 | CC(OCc1ccc(-c2ccccc2)cc1)(C(=O)NO)C(=O)NCc1cn2ccccc2n1 (stereo not drawn) [Example 83, 2-(biphenyl-4-ylmethoxy)-N-hydroxy-N′-(imidazo[1,2-a]pyridin-2-ylmethyl)-2-methylmalonamide] | 0.00218 µM | 16 µg/mL (≈ 36 µM) | > 32 µg/mL | 0.125 µg/mL (≈ 0.281 µM) | 8 µg/mL (≈ 18 µM) | 64 µg/mL (≈ 144 µM) | > 64 µg/mL | 64 µg/mL (≈ 144 µM)
9 | Cc1cc(CNC(=O)C(C)(OCc2ccc(-c3ccc(-c4cc(CO)no4)cc3)cc2)C(=O)NO)no1 (stereo not drawn) [Example 84, N-hydroxy-2-({4′-[3-(hydroxymethyl)isoxazol-5-yl]biphenyl-4-yl}methoxy)-2-methyl-N′-[(5-methylisoxazol-3-yl)methyl]malonamide] | 0.000861 µM | 1 µg/mL (≈ 1.97 µM) | > 64 µg/mL | 0.06 µg/mL (≈ 0.118 µM) | 2 µg/mL (≈ 3.95 µM) | 8 µg/mL (≈ 15.8 µM) | 16 µg/mL (≈ 31.6 µM) | > 64 µg/mL

Reference: US9340493B2, “Hydroxamic acid derivatives useful as antibacterial agents” (Pfizer Inc., priority 2008, dated 2016)
